The test system of this assay is L1210 leukemia ip in BDF1 mice, survival T/C. Kind of assay: NCI In Vivo Anticancer Drug Screen. Data for tumor model L1210 Leukemia (intraperitoneal) in B6D2F1 (BDF1) mice. The conditions noted are these: endpoint: mean survival time, higher = longer survival. The method in brief:
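Transplanted-tumor mice were given test agent; controls received vehicle only. Survival readings from the two groups were divided (treated over control).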

Setting [1] is: dose: 100.0 mg/kg/injection, schedule: Q01DX001 (ip), vehicle: Klucel (hydroxypropylcellulose) (HPC).
Setting [2] is: dose: 100.0 mg/kg/injection, schedule: Q01DX009 (ip), vehicle: Klucel (hydroxypropylcellulose) (HPC).
[3] abbreviates: dose: 100.0 mg/kg/injection, schedule: Q04DX002 (ip), vehicle: Klucel (hydroxypropylcellulose) (HPC).
Setting [4] is: dose: 100.0 mg/kg/injection, schedule: Q04DX003 (ip), vehicle: Klucel (hydroxypropylcellulose) (HPC).
Setting [5] is: dose: 200.0 mg/kg/injection, schedule: Q01DX001 (ip), vehicle: Klucel (hydroxypropylcellulose) (HPC).
Setting [6] is: dose: 200.0 mg/kg/injection, schedule: Q01DX009 (ip), vehicle: Klucel (hydroxypropylcellulose) (HPC).
The mark [7] stands for this setting: dose: 200.0 mg/kg/injection, schedule: Q04DX002 (ip), vehicle: Klucel (hydroxypropylcellulose) (HPC).
Where [8] appears, read: dose: 200.0 mg/kg/injection, schedule: Q04DX003 (ip), vehicle: Klucel (hydroxypropylcellulose) (HPC).
[9] abbreviates: dose: 400.0 mg/kg/injection, schedule: Q01DX001 (ip), vehicle: Klucel (hydroxypropylcellulose) (HPC).
The mark [10] stands for this setting: dose: 400.0 mg/kg/injection, schedule: Q01DX009 (ip), vehicle: Klucel (hydroxypropylcellulose) (HPC).
[11] abbreviates: dose: 400.0 mg/kg/injection, schedule: Q04DX002 (ip), vehicle: Klucel (hydroxypropylcellulose) (HPC).
Setting [12] is: dose: 400.0 mg/kg/injection, schedule: Q04DX003 (ip), vehicle: Klucel (hydroxypropylcellulose) (HPC).
Where [13] appears, read: dose: 100.0 mg/kg/injection, schedule: Q04DX003 (ip), vehicle: saline with Tween-80.
Where [14] appears, read: dose: 200.0 mg/kg/injection, schedule: Q04DX003 (ip), vehicle: saline with Tween-80.
Where [15] appears, read: dose: 400.0 mg/kg/injection, schedule: Q04DX003 (ip), vehicle: saline with Tween-80.
Setting [16] is: dose: 50.0 mg/kg/injection, schedule: Q01DX001 (ip), vehicle: saline.
[17] abbreviates: dose: 100.0 mg/kg/injection, schedule: Q01DX001 (ip), vehicle: saline.
Where [18] appears, read: dose: 200.0 mg/kg/injection, schedule: Q01DX001 (ip), vehicle: saline.
[19] abbreviates: dose: 400.0 mg/kg/injection, schedule: Q01DX001 (ip), vehicle: saline.
Where [20] appears, read: dose: 100.0 mg/kg/injection, schedule: Q04DX003 (ip), vehicle: saline.
The mark [21] stands for this setting: dose: 200.0 mg/kg/injection, schedule: Q04DX003 (ip), vehicle: saline.
Setting [22] is: dose: 400.0 mg/kg/injection, schedule: Q04DX003 (ip), vehicle: saline.
The mark [23] stands for this setting: dose: 12.5 mg/kg/injection, schedule: Q01DX009 (ip), vehicle: Klucel (hydroxypropylcellulose) (HPC).

“And” between values parts separate entries of the source, which are not always exact repeats. Equal entries are not always repeated. Inconclusive results and toxic doses are left out.

For the compound `O=C(Nc1cccc(O)c1)Nc1ccccc1F`, the T/C was 102 % of control under setting [1]; 102 % of control and 90 % of control under setting [2]; 97 % of control and 92 % of control under setting [3]; 103 % of control under setting [4]; 104 % of control under setting [5]; 96 % of control and 101 % of control under setting [6]. For the same compound, the T/C is 98 % of control and 99 % of control under setting [7]; 110 % of control under setting [8]; 104 % of control under setting [9]; 98 % of control and 101 % of control under setting [10]; 115 % of control and 89 % of control under setting [11]; 98 % of control under setting [12].

Consider `COP(=O)(OC)C(OC(=O)C(C)(C)SC(C)=S)=C(C)C`, for which the T/C is 103 % of control under setting [13], 96 % of control under setting [14] and 94 % of control under setting [15].

As for `CCOC(=O)c1cnc(SC)[nH]c1=O`, the T/C reads like this: under setting [16], 92 % of control; under setting [17], 95 % of control; under setting [18], 98 % of control; under setting [19], 98 % of control.

Regarding `CCOC(=O)C(CC(OCC)OCC)C1=NC(C)(C)CC(C)O1` (centres undefined), the T/C reads like this: under setting [1], 105 % of control; under setting [5], 89 % of control; under setting [9], 100 % of control.

As to `N#CCCC(CC#N)S(=O)(=O)O` (centres undefined), the T/C is, setting by setting: (dose: 100.0 mg/kg/injection, schedule: Q01DX009 (ip), vehicle: saline) 105 % of control; under setting [20], 100 % of control; (dose: 200.0 mg/kg/injection, schedule: Q01DX009 (ip), vehicle: saline) 103 % of control; under setting [21], 108 % of control; (dose: 400.0 mg/kg/injection, schedule: Q01DX009 (ip), vehicle: saline) 102 % of control; under setting [22], 106 % of control.

For `CCOC(=O)C(C#N)=C1CC(C)OC(C)C1` (centres undefined), the T/C was 100 % of control under setting [13], 97 % of control under setting [14] and 103 % of control under setting [15].

For `CN1C(=O)CCC1=O`, the T/C by setting is: under setting [20], 103 % of control; under setting [21], 98 % of control; under setting [22], 98 % of control.

Turning to `CCCCOC(=N)N(CCCC)CC(C)(C)[N+](=O)[O-]`, the T/C reads like this: (dose: 44.0 mg/kg/injection, schedule: Q01DX Z (ip), vehicle: methylcellulose (MC)) 98 % of control; (dose: 100.0 mg/kg/injection, schedule: Q01DX Z (ip), vehicle: methylcellulose (MC)) 98 % of control.

Turning to `c1ccc(-c2n[nH]c(-c3ccccn3)n2)nc1`, the T/C is 97 % of control (dose: 6.25 mg/kg/injection, schedule: Q01DX009 (ip), vehicle: Klucel (hydroxypropylcellulose) (HPC)) and 112 % of control under setting [23].

`C/C=C(\Br)C(=O)Nc1ccc(OCC)cc1`: the T/C under setting [17] was 100 % of control and the T/C under setting [18] is 105 % of control.

As for `O=C(Nc1cc([N+](=O)[O-])ccc1Cl)c1ccc(F)cc1`, the T/C runs as follows: under setting [3], 102 % of control; under setting [7], 98 % of control; under setting [11], 102 % of control.

Take `CC1(C)N=C(SCC(=O)c2ccccc2)NC1(C)C`: the T/C runs as follows: (dose: 25.0 mg/kg/injection, schedule: Q04DX002 (ip), vehicle: saline) 101 % of control; (dose: 50.0 mg/kg/injection, schedule: Q04DX002 (ip), vehicle: saline) 101 % of control; (dose: 100.0 mg/kg/injection, schedule: Q04DX002 (ip), vehicle: saline) 101 % of control.

On to `CCN(CC)C(=O)Nc1ccccc1F`, for which the T/C is, setting by setting: under setting [2], 104 % of control; under setting [6], 98 % of control; under setting [10], 119 % of control.

Turning to `Cc1nnc([N+](=O)[O-])s1`, the T/C is, setting by setting: under setting [23], 107 % of control; (dose: 25.0 mg/kg/injection, schedule: Q01DX009 (ip), vehicle: Klucel (hydroxypropylcellulose) (HPC)) 112 % of control; (dose: 50.0 mg/kg/injection, schedule: Q01DX009 (ip), vehicle: Klucel (hydroxypropylcellulose) (HPC)) 102 % of control.

In the case of `CCC(C)P(=O)(N1CC1)N1CC1` (centres undefined), the T/C reads like this: (dose: 2.0 mg/kg/injection, schedule: Q01DX015 (ip), vehicle: carboxymethylcellulose (CMC)) 100 % of control; (dose: 4.0 mg/kg/injection, schedule: Q01DX015 (ip), vehicle: carboxymethylcellulose (CMC)) 103 % of control; (dose: 8.0 mg/kg/injection, schedule: Q01DX015 (ip), vehicle: carboxymethylcellulose (CMC)) 105 % of control; (dose: 16.0 mg/kg/injection, schedule: Q01DX015 (ip), vehicle: carboxymethylcellulose (CMC)) 121 % of control; (dose: 32.0 mg/kg/injection, schedule: Q01DX015 (ip), vehicle: carboxymethylcellulose (CMC)) 183 % of control.

In the case of `CCOC(=O)CSc1c([N+](=O)[O-])c(C)nn1C`, the T/C was 101 % of control (dose: 25.0 mg/kg/injection, schedule: Q01DX009 (ip), vehicle: water); 97 % of control (dose: 50.0 mg/kg/injection, schedule: Q01DX009 (ip), vehicle: water); 105 % of control (dose: 100.0 mg/kg/injection, schedule: Q01DX009 (ip), vehicle: water); 97 % of control (dose: 200.0 mg/kg/injection, schedule: Q01DX009 (ip), vehicle: water); 92 % of control (dose: 400.0 mg/kg/injection, schedule: Q01DX009 (ip), vehicle: water).

`COC1=C2C=[N+](C)C3C(=C2C=CC1OC)Cc1cc(OC)c(OC)cc13` (centres undefined): the T/C is 98 % of control under setting [16], 93 % of control under setting [17], 102 % of control under setting [18] and 96 % of control under setting [19].

`O=C(C=C(C(F)(F)F)C(F)(F)F)c1cc(Cl)ccc1Cl`: the T/C is 110 % of control (dose: 12.5 mg/kg/injection, schedule: Q01DX009 (ip), vehicle: saline with Tween-80); 97 % of control (dose: 12.5 mg/kg/injection, schedule: Q04DX003 (ip), vehicle: saline with Tween-80); 102 % of control (dose: 25.0 mg/kg/injection, schedule: Q01DX009 (ip), vehicle: saline with Tween-80); 100 % of control (dose: 25.0 mg/kg/injection, schedule: Q04DX003 (ip), vehicle: saline with Tween-80); 105 % of control (dose: 50.0 mg/kg/injection, schedule: Q04DX003 (ip), vehicle: saline with Tween-80).

As for `ClCCOCc1ccccc1`, the T/C was 102 % of control under setting [4], 100 % of control under setting [8] and 98 % of control under setting [12].

As for `Nc1ncc(-c2ccc(CNc3ccc(C(=O)NC(CC(=O)O)CC(=O)O)cc3)cc2)c(N)n1`, the T/C (dose: 10.5 mg/kg/injection, schedule: Q01DX009 (ip), vehicle: saline) was 122 % of control; the T/C (dose: 12.5 mg/kg/injection, schedule: Q01DX009 (ip), vehicle: saline) is 114 % of control; the T/C (dose: 14.5 mg/kg/injection, schedule: Q01DX009 (ip), vehicle: saline) is 116 % of control; the T/C (dose: 18.0 mg/kg/injection, schedule: Q01DX009 (ip), vehicle: saline) is 114 % of control; the T/C (dose: 22.0 mg/kg/injection, schedule: Q01DX009 (ip), vehicle: saline) was 116 % of control; the T/C (dose: 50.0 mg/kg/injection, schedule: Q01DX009 (ip), vehicle: saline) is 165 % of control and 185 % of control. For the same compound, the T/C by setting is: (dose: 66.0 mg/kg/injection, schedule: Q01DX001 (ip), vehicle: saline) 122 % of control; (dose: 75.0 mg/kg/injection, schedule: Q01DX001 (ip), vehicle: saline) 112 % of control and 119 % of control; (dose: 75.0 mg/kg/injection, schedule: Q01DX009 (ip), vehicle: saline) 107 % of control; (dose: 150.0 mg/kg/injection, schedule: Q01DX001 (ip), vehicle: saline) 115 % of control.
